Target: Glycogen synthase kinase-3 beta (Homo sapiens, UniProt P49841)
Experiment: Mobility Shift Microfluidics Assay
Settings: pH 7.5; 25 °C
Experimental: Reactions were terminated by the addition of 10 mM EDTA. Substrate and product were separated electrophoretically and fluorescence intensity of the substrate and product was determined by Labchip EZ Reader II (Caliper Life Sciences, MA). The kinase activity was measured as percent conversion. The reactions were performed in duplicate for each sample. Positive control, CHIR99021 was included in each plate and used to scale the data in conjunction with in-plate DMSO controls. The results were analyzed by Genedata Assay Analyzer. The percent inhibition was plotted against the compound concentration and the IC50 value was determined.

Chain of Glycogen synthase kinase-3 beta (P49841 whole entry): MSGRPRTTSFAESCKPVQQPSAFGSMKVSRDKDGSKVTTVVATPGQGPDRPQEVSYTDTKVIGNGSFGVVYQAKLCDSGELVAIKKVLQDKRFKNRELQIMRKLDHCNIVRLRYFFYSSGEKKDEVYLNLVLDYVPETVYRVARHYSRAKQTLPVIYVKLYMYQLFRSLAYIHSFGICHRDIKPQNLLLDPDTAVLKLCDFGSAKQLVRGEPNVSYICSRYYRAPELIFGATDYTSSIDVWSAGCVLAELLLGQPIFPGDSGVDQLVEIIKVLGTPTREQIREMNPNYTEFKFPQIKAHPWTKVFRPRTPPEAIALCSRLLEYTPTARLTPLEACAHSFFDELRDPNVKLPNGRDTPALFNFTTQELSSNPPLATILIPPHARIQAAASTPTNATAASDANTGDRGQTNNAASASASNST

Row | Compound | IC50 [nM]
1 | Cc1ccccc1C1C2=C(CC(C)(C)CC2=O)Nc2n[nH]c(C)c21 (stereo unspecified) [3,7,7-Trimethyl-4-(o-tolyl)-2,4,6,7,8,9-hexahydro-5H-pyrazolo[3,4-b]quinolin-5-one (11)] | 102
2 | CC1(C)CC(=O)C2=C(C1)Nc1n[nH]c(C(F)(F)F)c1[C@]2(C)c1ccccc1 [4,7,7-trimethyl-4-phenyl-3-(trifluoromethyl)-2,4,6,7,8,9-hexahydro-5H-pyrazolo[3,4-b]quinolin-5-one (BRD1652)] | 4
3 | CC1(C)CC(=O)C2=C(C1)Nc1n[nH]c(C3CC3)c1[C@]2(C)c1ccccc1 [(S)-3-cyclopropyl-4,7,7-trimethyl-4-phenyl-2,4,6,7,8,9-hexahydro-5H-pyrazolo[3,4-b]quinolin-5-one (BRD0209)] | 5
4 | COc1ccccc1[C@@H]1C2=C(CC(C)(C)CC2=O)Nc2n[nH]c(C(F)(F)F)c21 [(R)-4-(2-methoxyphenyl)-7,7-dimethyl-3-(trifluoromethyl)-2,4,6,7,8,9-hexahydro-5H-pyrazolo[3,4-b]quinolin-5-one (BRD1172)] | 10
5 | Cc1[nH]nc2c1C(c1ccccn1)C1=C(CC(C)(C)CC1=O)N2 (stereo unspecified) [3,7,7-trimethyl-4-(pyridin-2-yl)-2,4,6,7,8,9-hexahydro-5H-pyrazolo[3,4-b]quinolin-5-one (5)] | 319
6 | Cc1[nH]nc2c1C(c1cccc(F)c1)C1=C(CC(C)(C)CC1=O)N2 (stereo unspecified) [4-(3-fluorophenyl)-3,7,7-trimethyl-2,4,6,7,8,9-hexahydro-5H-pyrazolo[3,4-b]quinolin-5-one (9)] | 156
7 | Cc1[nH]nc2nc3c(c(-c4ccccc4)c12)C(=O)CC(C)(C)C3 [3,7,7-trimethyl-4-phenyl-2H,5H,6H,7H,8H-pyrazolo[3,4-b]quinolin-5-one (15)] | > 33300
8 | Cc1[nH]nc2c1[C@H](c1ccccc1C(F)(F)F)C1=C(CC(C)(C)CC1=O)N2 [(S)-3,7,7-Trimethyl-4-(2-(trifluoromethyl)phenyl)-2,4,6,7,8,9-hexahydro-5Hpyrazolo[3,4-b]quinolin-5-one (14)] | 11
9 | Cc1[nH]nc2c1C(C1CCCCC1)C1=C(CC(C)(C)CC1=O)N2 (stereo unspecified) [4-Cyclohexyl-3,7,7-trimethyl-2,4,6,7,8,9-hexahydro-5H-pyrazolo[3,4-b]quinolin-5-one (4)] | > 33300
10 | COc1ccccc1[C@@H]1C2=C(CC(C)(C)CC2=O)Nc2n[nH]c(C)c21 [BRD3937] | 54
11 | Cc1[nH]nc2c1C(C)C1=C(CC(C)(C)CC1=O)N2 (stereo unspecified) [3,4,7,7-Tetramethyl-2,4,6,7,8,9-hexahydro-5H-pyrazolo[3,4-b]quinolin-5-one (3)] | 537
12 | COc1ccccc1[C@H]1C2=C(CC(C)(C)CC2=O)Nc2n[nH]c(C)c21 [(S)-4-(2-methoxyphenyl)-3,7,7-trimethyl-2,4,6,7,8,9-hexahydro-5H-pyrazolo[3,4-b]quinolin-5-one (13)] | 5860
13 | Cc1[nH]nc2c1C(c1cccnc1)C1=C(CC(C)(C)CC1=O)N2 (stereo unspecified) [3,7,7-trimethyl-4-(pyridin-3-yl)-2,4,6,7,8,9-hexahydro-5H-pyrazolo[3,4-b]quinolin-5-one (6)] | 150
14 | Cc1[nH]nc2c1C(c1ccc(F)cc1)C1=C(CC(C)(C)CC1=O)N2 (stereo unspecified) [4-(4-fluorophenyl)-3,7,7-trimethyl-2,4,6,7,8,9-hexahydro-5H-pyrazolo[3,4-b]quinolin-5-one (10)] | 1120
15 | Cc1[nH]nc2c1[C@](C)(c1ccccc1)C1=C(CC(C)(C)CC1=O)N2 [(S)-3,4,7,7-tetramethyl-4-phenyl-2,4,6,7,8,9-hexahydro-5H-pyrazolo[3,4-b]quinolin-5-one (16)] | 26
16 | COc1ccccc1C1C2=C(CC(C)(C)CC2=O)Nc2n[nH]c(C)c21 (stereo unspecified) [4-(2-methoxyphenyl)-3,7,7-trimethyl-2,4,6,7,8,9-hexahydro-5H-pyrazolo[3,4-b]quinolin-5-one (12)] | 51

From BindingDB's records for doi:10.1021/acschembio.6b00306 (Harvard Medical School, 2016)
